Source: patent publication US20180099931A1 (AbbVie S.à.r.l., priority 2016, published 2018)
pEC50: −log10 of the molar value. Like-named read-outs stand apart in the source and are kept apart here.

Molecular target: T1, F508delCFTR (Homo sapiens, UniProt P13569, DEL508-508)
T1 construct: expressed in transfected cells; host or cells: CFBE41o- human lung-derived epithelial cells (CFBE4lo-F508delCFTR-HRP), doxycycline-inducible
Assay: Cell Surface Expression-Horse Radish Peroxidase (CSE-HRP) Assay;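 on Maximum % activity (with co-corrector): co-corrector and positive control are both the same reference corrector at 2 µM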;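 on Maximum % activity (without co-corrector): percent of the 2 µM on-plate positive control corrector response above DMSO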
Type: cell-based
Conditions: for Emax / Maximum % activity (with co-corrector): maximum at any tested concentration, normalized to on-plate positive control; for Emax: read-out: Maximum % activity (without co-corrector)
Experimental: Cell Surface Expression-Horse Radish Peroxidase (CSE-HRP) Assay;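 on Maximum % activity (with co-corrector): co-corrector and positive control are both the same reference corrector at 2 µM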;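 on Maximum % activity (without co-corrector): percent of the 2 µM on-plate positive control corrector response above DMSO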
The development was achieved by expressing the F508delCFTR mutation along with a horseradish peroxidase (HRP) in the fourth exofacial loop, and then measuring the HRP activity using luminescence readout from these cells, CFBE4lo-F508delCFTR-HRP, that were incubated overnight with the test corrector compounds, either without or with the co-corrector. […] The test compounds were then added either without or with a co-corrector at the required concentrations and further incubated for 18-24 hours at 33° C. The highest concentration tested was 20 μM with an 8-point concentration response curve using a 3-fold dilution in both the test compound without or with the co-corrector. Three replicate plates were run to determine one EC50. All plates contained negative controls (dimethyl sulfoxide, DMSO) and positive control (2 μM of 3-[(2R,4R)-4-({[1-(2,2-difluoro-1,3-benzodioxol-5-yl)cyclopropyl]carbonyl}amino)-7-methoxy-3,4-dihydro-2H-chromen-2-yl]benzoic acid) as well as on-plate concentration response of the positive control. […] The raw counts from the experiment were analyzed using Accelrys® Assay Explorer v3.3.
1−[3*SDPositive Control+3*SDNegative Control/Absolute(MeanPositive Control−MeanNegative Control)]
wherein “SD” is standard deviation.
The % activity measured at each of the 8 test concentrations of the test compound added either without or with a co-corrector (2 μM of 3-[(2R,4R)-4-({[1-(2,2-difluoro-1,3-benzodioxol-5-yl)cyclopropyl]carbonyl}amino)-7-methoxy-3,4-dihydro-2H-chromen-2-yl]benzoic acid) was normalized to the on-plate positive control using the following formulae:
% activity(Test compound without co-corrector)=[(test compound without co-corrector response−DMSO response)/(positive control response−DMSO response)]*100
% activity(Test compound with co-corrector)=[(test compound with co-corrector response−DMSO response)/(positive control response−DMSO response)]*100
The maximum % activity achieved for the test compound either without or with a co-corrector at any tested concentration is presented in Table 4 along with the respective EC50's calculated using the following general sigmoidal curve with variable Hill slope equation (described as Model 42 in the Accelrys® Assay Explorer v3.3 software):
General sigmoidal curve with concentration, response, top, bottom, EC50 and Hill slope. This model describes a sigmoidal curve with an adjustable baseline, a. The equation can be used to fit curves where response is either increasing or decreasing with respect to the independent variable, “x”.
“x” is a concentration of drug under test. “y” is the response. “a” is the maximum response, and “d” is the minimum response “c” is the inflection point (EC50) for the curve. That is, “y” is halfway between the lower and upper asymptotes when x=c. “b” is the slope-factor or Hill coefficient. The sign of b is positive when the response increases with increasing dose and is negative when the response decreases with increasing dose (inhibition).

[1] = test compound without co-corrector
[2] = test compound without co-corrector, read-out: EC50 (without co-corrector)
[3] = with co-corrector (2 μM of 3-[(2R,4R)-4-({[1-(2,2-difluoro-1,3-benzodioxol-5-yl)cyclopropyl]carbonyl}amino)-7-methoxy-3,4-dihydro-2H-chromen-2-yl]benzoic acid)
[4] = with co-corrector (2 μM of 3-[(2R,4R)-4-({[1-(2,2-difluoro-1,3-benzodioxol-5-yl)cyclopropyl]carbonyl}amino)-7-methoxy-3,4-dihydro-2H-chromen-2-yl]benzoic acid), read-out: EC50 (with co-corrector)

T1 sequence (P13569 with tags, fused parts or gaps DEL508-508): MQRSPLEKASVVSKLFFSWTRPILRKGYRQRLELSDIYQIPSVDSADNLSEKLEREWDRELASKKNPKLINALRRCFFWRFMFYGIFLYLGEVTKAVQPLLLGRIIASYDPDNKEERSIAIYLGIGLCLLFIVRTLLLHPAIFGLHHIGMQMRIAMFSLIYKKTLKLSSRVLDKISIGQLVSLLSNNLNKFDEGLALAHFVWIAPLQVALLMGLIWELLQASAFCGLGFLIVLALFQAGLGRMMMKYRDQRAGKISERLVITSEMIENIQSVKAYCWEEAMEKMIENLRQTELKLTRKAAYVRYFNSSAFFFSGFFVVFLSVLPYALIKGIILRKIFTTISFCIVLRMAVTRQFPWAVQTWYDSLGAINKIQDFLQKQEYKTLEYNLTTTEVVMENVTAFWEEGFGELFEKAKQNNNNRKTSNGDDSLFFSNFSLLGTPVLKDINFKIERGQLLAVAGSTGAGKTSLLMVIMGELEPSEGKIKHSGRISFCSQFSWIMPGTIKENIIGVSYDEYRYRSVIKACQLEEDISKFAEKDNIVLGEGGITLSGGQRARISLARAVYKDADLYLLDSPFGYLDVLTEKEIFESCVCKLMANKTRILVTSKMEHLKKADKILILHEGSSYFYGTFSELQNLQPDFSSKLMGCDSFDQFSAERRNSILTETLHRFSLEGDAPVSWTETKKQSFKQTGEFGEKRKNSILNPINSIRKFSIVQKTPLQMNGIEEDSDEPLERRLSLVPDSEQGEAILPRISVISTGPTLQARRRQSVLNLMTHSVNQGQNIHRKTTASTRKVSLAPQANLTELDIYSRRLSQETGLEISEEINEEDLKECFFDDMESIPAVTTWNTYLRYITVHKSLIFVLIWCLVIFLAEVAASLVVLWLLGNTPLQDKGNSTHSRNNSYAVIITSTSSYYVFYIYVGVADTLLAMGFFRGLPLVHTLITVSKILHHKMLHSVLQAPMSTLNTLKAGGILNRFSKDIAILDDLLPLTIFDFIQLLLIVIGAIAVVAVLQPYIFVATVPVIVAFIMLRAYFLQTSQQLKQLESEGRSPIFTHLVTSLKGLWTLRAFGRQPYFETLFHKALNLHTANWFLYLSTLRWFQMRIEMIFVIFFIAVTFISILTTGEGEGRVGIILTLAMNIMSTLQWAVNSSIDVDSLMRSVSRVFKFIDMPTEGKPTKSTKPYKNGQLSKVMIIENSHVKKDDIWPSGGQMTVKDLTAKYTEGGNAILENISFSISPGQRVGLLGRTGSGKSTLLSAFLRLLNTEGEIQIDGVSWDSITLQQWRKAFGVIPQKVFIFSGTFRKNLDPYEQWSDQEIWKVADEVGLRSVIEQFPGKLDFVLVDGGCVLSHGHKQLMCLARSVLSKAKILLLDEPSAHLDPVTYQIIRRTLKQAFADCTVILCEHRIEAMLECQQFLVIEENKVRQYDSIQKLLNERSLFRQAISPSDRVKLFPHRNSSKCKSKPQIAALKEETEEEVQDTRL

CC(C)(C)[C@@H]1[C@@H](NCc2cc(S(C)(=O)=O)ccc2O)[C@@H](c2ccccc2)N(C(=O)C2CCCCC2)[C@H]1C(=O)O (racemic) [III-79]
Emax [1]: < 100% | pEC50 [2]: < 5.00 | Maximum % activity (with co-corrector) [3]: + (<150) | pEC50 [4]: < 5.00

COCCOc1ncc(C(F)(F)F)cc1CN[C@@H]1[C@@H](C(C)(C)C)[C@H](C(=O)O)N(C(=O)C2CCCCC2)[C@@H]1c1ccccc1 (racemic) [III-80]
Emax [1]: < 100% | pEC50 [2]: < 5.00 | Maximum % activity (with co-corrector) [3]: ++ (≥150 and <350) | pEC50 [4]: 5.00 to 6.00

COc1ncc(C(F)(F)F)cc1CN[C@@H]1[C@@H](C(C)(C)C)[C@H](C(=O)O)N(C(=O)C2CCCCC2)[C@@H]1c1ccccc1 (racemic) [III-81]
Emax [1]: 100 to 200% | pEC50 [2]: 5.00 to 6.00 | Maximum % activity (with co-corrector) [3]: +++ (≥350) | pEC50 [4]: 5.00 to 6.00

COc1cc(Cl)ccc1CN[C@@H]1[C@@H](C(C)(C)C)[C@H](C(=O)O)N(C(=O)C2CCCCC2)[C@@H]1c1ccccn1 (racemic) [III-82]
Emax [1]: < 100% | pEC50 [2]: 5.00 to 6.00 | Maximum % activity (with co-corrector) [3]: ++ (≥150 and <350) | pEC50 [4]: 5.00 to 6.00

CC(C)(C)[C@@H]1[C@@H](NCc2ccccc2C#N)[C@@H](c2ccccc2)N(C(=O)C2CCCCC2)[C@H]1C(=O)O (racemic) [III-83]
Emax [1]: < 100% | pEC50 [2]: < 5.00 | Maximum % activity (with co-corrector) [3]: + (<150) | pEC50 [4]: < 5.00

CC(C)(C)[C@@H]1[C@@H](NCc2cc(C(F)(F)F)ccc2OCCCS(C)(=O)=O)[C@@H](c2ccccc2)N(C(=O)C2CCCCC2)[C@H]1C(=O)O (racemic) [III-84]
Emax [1]: < 100% | pEC50 [2]: < 5.00 | Maximum % activity (with co-corrector) [3]: + (<150) | pEC50 [4]: 5.00 to 6.00

CC(C)(C)[C@@H]1[C@@H](NCc2cc(C(F)(F)F)ccc2OCCCF)[C@@H](c2ccccc2)N(C(=O)C2CCCCC2)[C@H]1C(=O)O (racemic) [III-85]
Emax [1]: < 100% | pEC50 [2]: < 5.00 | Maximum % activity (with co-corrector) [3]: ++ (≥150 and <350) | pEC50 [4]: 5.00 to 6.00

CC(C)(C)[C@@H]1[C@@H](NCc2cc(C(F)(F)F)ccc2OCCOC(F)(F)F)[C@@H](c2ccccc2)N(C(=O)C2CCCCC2)[C@H]1C(=O)O (racemic) [III-86]
Emax [1]: < 100% | pEC50 [2]: < 5.00 | Maximum % activity (with co-corrector) [3]: ++ (≥150 and <350) | pEC50 [4]: 5.00 to 6.00

CC(C)(C)[C@@H]1[C@@H](NCc2cc(C(F)(F)F)cnc2OCCO)[C@@H](c2ccccc2)N(C(=O)C2CCCCC2)[C@H]1C(=O)O (racemic) [III-87]
Emax [1]: < 100% | pEC50 [2]: < 5.00 | Maximum % activity (with co-corrector) [3]: ++ (≥150 and <350) | pEC50 [4]: 5.00 to 6.00

CO[C@@H](C(=O)N1[C@H](c2cccnc2N(C)C)[C@H](Nc2cc(C(F)(F)F)cc(C)n2)[C@@H](C(C)(C)C)[C@@H]1C(=O)O)c1ccccc1 (racemic) [III-89]
Emax [1]: < 100% | pEC50 [2]: < 5.00 | Maximum % activity (with co-corrector) [3]: + (<150) | pEC50 [4]: < 5.00

CO[C@H](C(=O)N1[C@H](c2cccnc2N(C)C)[C@H](Nc2cc(C(F)(F)F)cc(C)n2)[C@@H](C(C)(C)C)[C@@H]1C(=O)O)c1ccccc1 (racemic) [III-90]
Emax [1]: < 100% | pEC50 [2]: < 5.00 | Maximum % activity (with co-corrector) [3]: + (<150) | pEC50 [4]: 5.00 to 6.00

COc1ccc(CN[C@@H]2[C@@H](C(C)(C)C)[C@H](C(=O)O)N(C(=O)OC(C)C)[C@@H]2c2ccccc2)c(OC)c1 (racemic) [III-91]
Emax [1]: < 100% | pEC50 [2]: 5.00 to 6.00 | Maximum % activity (with co-corrector) [3]: ++ (≥150 and <350) | pEC50 [4]: 5.00 to 6.00

COc1cc(-c2ccccc2)ccc1CN[C@@H]1[C@@H](C(C)(C)C)[C@H](C(=O)O)N(C(=O)OC(C)C)[C@@H]1c1ccccc1 (racemic) [III-92]
Emax [1]: < 100% | pEC50 [2]: < 5.00 | Maximum % activity (with co-corrector) [3]: + (<150) | pEC50 [4]: < 5.00

Cc1cc(C(F)(F)F)cc(N[C@@H]2[C@@H](C(C)(C)C)[C@H](C(=O)O)N(C(=O)OC(C)C)[C@@H]2c2cccnc2N(C)C)n1 (racemic) [III-93]
Emax [1]: < 100% | pEC50 [2]: 5.00 to 6.00 | Maximum % activity (with co-corrector) [3]: ++ (≥150 and <350) | pEC50 [4]: 5.00 to 6.00
